{"source": "ChEMBL document CHEMBL1201862", "about": "“PubChem BioAssay data set” (2004)", "key": {"Protein skinhead-1": {"molecular_target": "T1, Protein skinhead-1 (Caenorhabditis elegans, UniProt P34707)", "T1 sequence (P34707 whole entry)": "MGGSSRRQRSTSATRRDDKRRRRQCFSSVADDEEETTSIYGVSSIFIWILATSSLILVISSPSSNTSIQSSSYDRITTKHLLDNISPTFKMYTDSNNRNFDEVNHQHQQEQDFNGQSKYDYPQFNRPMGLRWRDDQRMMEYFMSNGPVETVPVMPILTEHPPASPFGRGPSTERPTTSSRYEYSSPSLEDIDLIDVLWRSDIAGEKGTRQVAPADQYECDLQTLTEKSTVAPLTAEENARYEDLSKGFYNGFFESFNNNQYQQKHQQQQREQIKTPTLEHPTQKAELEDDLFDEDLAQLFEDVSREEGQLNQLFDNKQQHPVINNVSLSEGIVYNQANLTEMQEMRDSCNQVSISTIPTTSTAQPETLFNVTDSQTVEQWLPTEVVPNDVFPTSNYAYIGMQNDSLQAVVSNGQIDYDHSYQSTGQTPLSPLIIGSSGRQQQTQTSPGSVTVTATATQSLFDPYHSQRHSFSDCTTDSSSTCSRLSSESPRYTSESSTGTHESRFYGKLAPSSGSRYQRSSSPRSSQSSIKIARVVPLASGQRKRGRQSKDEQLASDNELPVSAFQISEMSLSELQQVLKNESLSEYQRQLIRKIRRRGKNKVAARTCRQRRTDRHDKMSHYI", "type": "functional"}, "cells": {"test": "cells", "type": "functional, cell-based"}, "[1]": {"molecular_target": "T2, Nuclear receptor subfamily 0 group B member 1 (Homo sapiens, UniProt P51843)", "T2 sequence (P51843 whole entry)": "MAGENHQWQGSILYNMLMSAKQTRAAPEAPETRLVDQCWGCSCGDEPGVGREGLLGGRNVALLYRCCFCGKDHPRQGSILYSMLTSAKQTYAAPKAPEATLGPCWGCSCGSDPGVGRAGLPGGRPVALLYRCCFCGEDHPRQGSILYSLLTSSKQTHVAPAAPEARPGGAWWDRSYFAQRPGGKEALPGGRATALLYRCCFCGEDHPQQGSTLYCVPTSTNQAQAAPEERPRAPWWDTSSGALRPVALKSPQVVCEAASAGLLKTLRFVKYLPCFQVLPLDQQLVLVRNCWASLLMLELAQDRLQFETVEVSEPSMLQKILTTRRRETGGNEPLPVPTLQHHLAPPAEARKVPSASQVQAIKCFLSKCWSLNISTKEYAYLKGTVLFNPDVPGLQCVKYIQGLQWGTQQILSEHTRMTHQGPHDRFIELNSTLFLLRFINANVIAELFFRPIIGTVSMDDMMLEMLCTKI", "type": "functional, cell-based"}, "[2]": {"test": "miR-122 activators in hepatoma reporter cells, dose response, cell-based, Huh7 psiCHECK-miR122, Renilla luciferase, cherry-picked (AID 651956);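 note: huh7 hepatoma cells stably carrying a psiCHECK-2 miR-122 sensor plasmid; renilla luciferase signal reporting endogenous miR-122 activity after 48 h compound exposure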", "type": "functional"}, "[3]": {"test": "inhibitors of HIV Env-driven cell fusion, dose response, cherry-pick (AID 652057)", "type": "functional, cell-based"}, "[4]": {"test": "ZM109 Env clade C HIV-1 fusion inhibitors, dose response, HeLa effector, CEM target cells, luciferase, cherry-pick (AID 652058)", "type": "functional, cell-based"}, "[5]": {"test": "off-target signal loss in HeLa-CEM21 co-culture – HeLa F-luc CTL cells, cherry-picked, counter-screen for HIV-1 Env fusion inhibitor project, dose response (AID 652040);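 note: potency for signal decrease marking cytotoxic or nonspecific inhibition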", "type": "functional, cell-based"}, "[6]": {"test": "inhibitors of clade B AD8 Env fusion, dose response, cell-based, cherry-pick (AID 652062);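 note: potency is for inhibitors of fusion seen as a drop in luminescence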", "type": "functional"}, "[7]": {"molecular_target": "T3, Low molecular weight phosphotyrosine protein phosphatase (Homo sapiens, UniProt P24666)", "T3 sequence (P24666 whole entry)": "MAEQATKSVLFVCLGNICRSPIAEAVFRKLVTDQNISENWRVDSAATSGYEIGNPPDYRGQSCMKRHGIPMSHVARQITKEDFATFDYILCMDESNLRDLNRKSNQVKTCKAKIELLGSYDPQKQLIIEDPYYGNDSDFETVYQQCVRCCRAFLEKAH", "type": "functional", "settings": "read-out: IC50_Mean"}, "[8]": {"molecular_target": "T3, Low molecular weight phosphotyrosine protein phosphatase", "type": "functional", "settings": "read-out: IC50_Mean", "remark": "listed apart in the source"}, "[9]": {"test": "growth suppression of PTEN-null colon cells, dose response, cell-based, HCT116 PTEN knockout (AID 1047);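 note: cells exposed to compound for 60 hours before readout; potency for loss of cell viability measured by luminescence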", "type": "functional"}, "[10]": {"test": "growth suppression of beta-catenin-knockout colon cells, dose response, cell-based, HCT116, human colon tumor (AID 1045);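 note: cells exposed to compound for 60 hours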", "type": "functional"}, "[11]": {"test": "Luminescence Cell-Based Dose Retest to Confirm Inhibitors of Cancer Stem Cells. [Related pubchem assays (depositor defined):AID2717, AID2721]", "type": "functional", "settings": "Homo sapiens"}, "[12]": {"molecular_target": "T4, Hepatocyte nuclear factor 4-alpha (Homo sapiens, UniProt P41235)", "T4 sequence (P41235 whole entry)": "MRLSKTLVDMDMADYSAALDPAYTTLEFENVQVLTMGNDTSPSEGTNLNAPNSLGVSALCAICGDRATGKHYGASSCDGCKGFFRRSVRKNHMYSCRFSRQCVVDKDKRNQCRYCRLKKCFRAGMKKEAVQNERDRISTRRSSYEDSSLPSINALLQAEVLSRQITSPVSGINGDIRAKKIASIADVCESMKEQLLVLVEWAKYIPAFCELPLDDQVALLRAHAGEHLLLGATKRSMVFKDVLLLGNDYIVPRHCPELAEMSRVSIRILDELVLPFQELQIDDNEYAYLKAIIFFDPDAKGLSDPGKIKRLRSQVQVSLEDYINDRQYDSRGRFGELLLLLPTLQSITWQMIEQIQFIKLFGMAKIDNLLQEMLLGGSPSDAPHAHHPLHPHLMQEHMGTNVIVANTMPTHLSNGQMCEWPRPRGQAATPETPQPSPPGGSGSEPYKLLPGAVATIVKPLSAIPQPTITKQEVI", "type": "functional, cell-based"}, "[13]": {"test": "HeLa cell cytotoxicity, dose response, cytotoxicity control for MgcRacGAP inhibitor project (AID 624300)", "type": "functional"}, "[14]": {"molecular_target": "T5, DNA repair protein RAD52 homolog (Homo sapiens, UniProt P43351)", "T5 sequence (P43351 whole entry)": "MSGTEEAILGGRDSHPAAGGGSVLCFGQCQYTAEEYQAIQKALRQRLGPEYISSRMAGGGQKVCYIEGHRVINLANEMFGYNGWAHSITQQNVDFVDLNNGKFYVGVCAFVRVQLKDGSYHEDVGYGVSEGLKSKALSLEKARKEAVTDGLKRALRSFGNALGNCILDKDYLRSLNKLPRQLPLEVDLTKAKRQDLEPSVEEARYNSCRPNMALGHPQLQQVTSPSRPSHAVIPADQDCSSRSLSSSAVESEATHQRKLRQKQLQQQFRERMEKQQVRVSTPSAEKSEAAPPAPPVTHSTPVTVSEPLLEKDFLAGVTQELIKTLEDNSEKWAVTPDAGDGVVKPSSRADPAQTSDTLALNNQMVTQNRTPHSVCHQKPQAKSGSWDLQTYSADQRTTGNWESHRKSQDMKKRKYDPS", "type": "functional, biochemical"}, "Paired box protein Pax-8": {"molecular_target": "Paired box protein Pax-8 (Homo sapiens, UniProt Q06710)", "sequence (Q06710 whole entry)": "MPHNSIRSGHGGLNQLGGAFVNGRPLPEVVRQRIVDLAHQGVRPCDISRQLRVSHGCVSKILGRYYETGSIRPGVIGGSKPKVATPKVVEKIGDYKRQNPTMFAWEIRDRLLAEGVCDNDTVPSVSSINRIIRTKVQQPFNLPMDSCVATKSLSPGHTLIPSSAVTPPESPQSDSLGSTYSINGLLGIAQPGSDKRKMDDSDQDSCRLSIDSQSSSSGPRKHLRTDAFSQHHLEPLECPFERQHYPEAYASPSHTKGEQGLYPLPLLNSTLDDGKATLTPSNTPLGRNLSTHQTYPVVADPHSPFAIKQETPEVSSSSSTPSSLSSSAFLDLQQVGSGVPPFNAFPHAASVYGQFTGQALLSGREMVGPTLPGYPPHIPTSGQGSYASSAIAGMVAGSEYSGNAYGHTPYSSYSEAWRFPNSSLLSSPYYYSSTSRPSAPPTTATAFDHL", "test": "inhibitors of PAX8-driven TPO luciferase reporter, dose response, RMG-I cells, cherry-pick (AID 687027);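 note: luciferase reporter driven by Pax8 target thyroperoxidase promoter measured by SteadyGlo luminescence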", "type": "functional, cell-based"}, "[15]": {"test": "non-specific cell cytotoxicity, dose response, cytotoxicity control for PAX8 inhibitor project, plate reader, dry powder samples (AID 743021)", "type": "functional, cell-based"}}, "note": "Activity calls are given as the source filed them.", "data": [{"molecule": "O=C(/C(=C/Nc1ccc(Br)cc1)C(=O)C(F)(F)F)c1ccco1", "values": [{"measurement": "IC50", "setting": "Protein skinhead-1", "result": "27.2 µM (active)"}, {"measurement": "IC50", "setting": "cells", "result": "> 67.5 µM (inactive)"}, {"measurement": "IC50", "setting": "[1]", "result": "> 67.5 µM (inactive)"}]}, {"molecule": "COC(=O)C[C@@H]1CC[C@@H]2[C@H](COc3ccc(NC(=O)Nc4cccc(F)c4)cc3C(=O)N2C)O1", "values": [{"measurement": "AC50", "setting": "[2]", "result": "40.1 µM (active)"}]}, {"molecule": "COCC(=O)N(C)C[C@H]1[C@H](c2ccccc2)[C@@H](CO)N1C(=O)NC(C)C", "values": [{"measurement": "AC50", "setting": "[2]", "result": "50.3 µM (active)"}]}, {"molecule": "C=C1CCN([C@@H](Cc2ccccc2)C(=O)Nc2ccc(OC)cc2)S(=O)(=O)c2ccccc21", "values": [{"measurement": "AC50", "setting": "[3]", "result": "0.923 µM (active)"}, {"measurement": "AC50", "setting": "[4]", "result": "0.848 µM (active)"}, {"measurement": "AC50", "setting": "[5]", "result": "1.31 µM (active)"}, {"measurement": "AC50", "setting": "[6]", "result": "2.03 µM (active)"}]}, {"molecule": "CN1CCc2c(sc(/N=C/c3c[nH]c4ccccc34)c2C(N)=O)C1", "values": [{"measurement": "IC50", "setting": "[7]", "result": "> 80 µM (inactive)"}, {"measurement": "IC50", "setting": "[8]", "result": "57.2 µM (inactive)"}]}, {"molecule": "O=C/C(=N\\Nc1ccc(Cl)cc1)C(=O)c1ccncc1", "values": [{"measurement": "EC50", "setting": "[9]", "result": "116 µM (active)"}, {"measurement": "EC50", "setting": "[10]", "result": "42.2 µM (active)"}, {"measurement": "AC50", "setting": "[11]", "result": "5.23 µM (active)"}, {"measurement": "IC50", "setting": "[12]", "result": "28.9 µM (inactive)"}]}, {"molecule": "COc1ccc2cc(CNCCOCCOCCNCc3ccc4cc(OC)ccc4c3)ccc2c1", "values": [{"measurement": "CC50", "setting": "[13]", "result": "9.1 µM (active)"}, {"measurement": "AC50", "setting": "[14]", "result": "2.45 µM (active)"}, {"measurement": "AC50", "setting": "Paired box protein Pax-8", "result": "19.1 µM (active)"}, {"measurement": "AC50", "setting": "[15]", "result": "20.3 µM (active)"}]}]}
